Source: patent US10202339B2, “Therapeutic compounds and compositions” (AGIOS PHARMACEUTICALS, INC., priority 2012, dated 2019)

The compounds below were run against IDH2 R140Q (Homo sapiens (Human), UniProt P48735, R140Q) (assay: IDH2 R140Q enzymatic cofactor depletion assay (diaphorase/resazurin)). Settings: IDH2 R140Q enzyme, one hour preincubation with compound, one hour reaction; read-out: Enz R140Q.
Format: biochemical
Protocol: The reaction was terminated by the addition of a second enzyme, diaphorase, and a corresponding substrate, resazurin. Diaphorase reduces resazurin to the highly fluorescent resorufin with the concomitant oxidation of NADPH to NADP, both halting the IDH2 reaction by depleting the available cofactor pool and facilitating quantitation of the amount of cofactor remaining after a specific time period through quantitative production of an easily detected fluorophore.
The compound was then incubated for one hour at room temperature with the enzyme; before starting the IDH2 reaction with the addition of 10 μl of substrate mix containing 50 μM NADPH and 6.3 mM α-KG in the buffer described above. After a further one hour of incubation at room temperature, the reaction was halted and the remaining NADPH measured through conversion of resazurin to resorufin by the addition of 25 μl Stop Mix (36 μg/ml diaphorase enzyme and 60 μM resazurin; in buffer). After one minute of incubation the plate was read on a plate reader at Ex544/Em590.

Sequence of IDH2 R140Q (P48735 40-452 R140Q): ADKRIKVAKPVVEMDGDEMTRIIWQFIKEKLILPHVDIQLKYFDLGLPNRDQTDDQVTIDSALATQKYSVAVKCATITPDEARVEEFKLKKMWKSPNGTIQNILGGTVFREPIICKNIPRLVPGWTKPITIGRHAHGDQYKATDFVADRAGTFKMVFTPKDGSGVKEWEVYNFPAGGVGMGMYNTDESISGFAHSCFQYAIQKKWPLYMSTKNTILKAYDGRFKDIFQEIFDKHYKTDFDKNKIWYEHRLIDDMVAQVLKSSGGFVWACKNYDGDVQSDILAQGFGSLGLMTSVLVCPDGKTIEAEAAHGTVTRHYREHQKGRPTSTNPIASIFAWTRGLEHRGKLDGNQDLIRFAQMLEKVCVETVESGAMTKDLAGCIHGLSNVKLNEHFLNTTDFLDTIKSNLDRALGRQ

| SMILES | IC50 [µM] |
| --- | --- |
| CC(C)n1ccc(NC(=O)Nc2cc(S(=O)(=O)NCC(F)(F)F)ccc2-c2ccccc2)n1 [Compound 92, 2-(3-(1-isopropyl-1H-pyrazol-3-yl)ureido)-N-(2,2,2-trifluoroethyl)-[1,1′-biphenyl]-4-sulfonamide] | 0.1 to 1 |
| CCn1ccc(NC(=O)Nc2cc(S(=O)(=O)NCC(F)(F)F)ccc2-c2ccccc2)n1 [Compound 93, 2-(3-(1-ethyl-1H-pyrazol-3-yl)ureido)-N-(2,2,2-trifluoroethyl)-[1,1′-biphenyl]-4-sulfonamide] | 0.1 to 1 |
| O=C(Nc1nc(C(F)(F)F)cs1)Nc1cc(S(=O)(=O)NCC(F)(F)F)ccc1-c1ccccc1 [Compound 103, N-(2,2,2-trifluoroethyl)-2-(3-(4-(trifluoromethyl)thiazol-2-yl)ureido)-[1,1′-biphenyl]-4-sulfonamide] | 0.1 to 1 |
| O=C(Nc1nccc(C(F)(F)F)n1)Nc1cc(S(=O)(=O)NCC(F)(F)F)ccc1-c1ccccc1 [Compound 106, N-(2,2,2-trifluoroethyl)-2-(3-(4-(trifluoromethyl)pyrimidin-2-yl)ureido)-[1,1′-biphenyl]-4-sulfonamide] | 0.1 to 1 |
| O=C(Nc1cc(S(=O)(=O)NCC(F)(F)F)ccc1-c1ccccc1)n1ccc2ccccc21 [Compound 108, N-(4-(N-(2,2,2-trifluoroethyl)sulfamoyl)-[1,1′-biphenyl]-2-yl)-1H-indole-1-carboxamide] | 0.1 to 1 |
| O=C(Nc1cccc(C(F)(F)F)c1)Nc1cc(S(=O)(=O)Nc2ccccc2)ccc1-c1ccccn1 [Compound 109] | 1 to 10 |
| CC(=O)Nc1cccc(-c2ccc(S(=O)(=O)Nc3ccccc3)cc2NC(=O)Nc2cccc(C(F)(F)F)c2)c1 [Compound 110] | 1 to 10 |
| CNS(=O)(=O)c1ccc(-c2ccsc2)c(NC(=O)Nc2cccc(C(F)(F)F)c2)c1 [Compound 111, N-methyl-4-(thiophen-3-yl)-3-(3-(3-(trifluoromethyl)phenyl)ureido)benzenesulfonamide] | 0.1 to 1 |
| CCNS(=O)(=O)c1ccc(-c2ccsc2)c(NC(=O)Nc2cccc(C(F)(F)F)c2)c1 [Compound 112, N-ethyl-4-(thiophen-3-yl)-3-(3-(3-(trifluoromethyl)phenyl)ureido)benzenesulfonamide] | 0.1 to 1 |
| CCCNS(=O)(=O)c1ccc(-c2ccsc2)c(NC(=O)Nc2cccc(C(F)(F)F)c2)c1 [Compound 113, N-propyl-4-(thiophen-3-yl)-3-(3-(3-(trifluoromethyl)phenyl)ureido)benzenesulfonamide] | 0.1 to 1 |
| CCCCNS(=O)(=O)c1ccc(-c2ccsc2)c(NC(=O)Nc2cccc(C(F)(F)F)c2)c1 [Compound 114, N-butyl-4-(thiophen-3-yl)-3-(3-(3-(trifluoromethyl)phenyl)ureido)benzenesulfonamide] | 0.1 to 1 |
| CC(C)NS(=O)(=O)c1ccc(-c2ccsc2)c(NC(=O)Nc2cccc(C(F)(F)F)c2)c1 [Compound 115, N-isopropyl-4-(thiophen-3-yl)-3-(3-(3-(trifluoromethyl)phenyl)ureido)benzenesulfonamide] | 0.1 to 1 |
| CC(C)CNS(=O)(=O)c1ccc(-c2ccsc2)c(NC(=O)Nc2cccc(C(F)(F)F)c2)c1 [Compound 116, N-isobutyl-4-(thiophen-3-yl)-3-(3-(3-(trifluoromethyl)phenyl)ureido)benzenesulfonamide] | 0.1 to 1 |
| CCC(C)NS(=O)(=O)c1ccc(-c2ccsc2)c(NC(=O)Nc2cccc(C(F)(F)F)c2)c1 (stereo not drawn) [Compound 117, N-(sec-butyl)-4-(thiophen-3-yl)-3-(3-(3-(trifluoromethyl)phenyl)ureido)benzenesulfonamide] | 0.1 to 1 |
| CC(C)(C)NS(=O)(=O)c1ccc(-c2ccsc2)c(NC(=O)Nc2cccc(C(F)(F)F)c2)c1 [Compound 118, N-(tert-butyl)-4-(thiophen-3-yl)-3-(3-(3-(trifluoromethyl)phenyl)ureido)benzenesulfonamide] | 0.1 to 1 |
| C=CCNS(=O)(=O)c1ccc(-c2ccsc2)c(NC(=O)Nc2cccc(C(F)(F)F)c2)c1 [Compound 119, N-allyl-4-(thiophen-3-yl)-3-(3-(3-(trifluoromethyl)phenyl)ureido)benzenesulfonamide] | 0.1 to 1 |
| O=C(Nc1cccc(C(F)(F)F)c1)Nc1cc(S(=O)(=O)NCCO)ccc1-c1ccsc1 [Compound 120, N-(2-hydroxyethyl)-4-(thiophen-3-yl)-3-(3-(3-(trifluoromethyl)phenyl)ureido)benzenesulfonamide] | 0.1 to 1 |
| COCCNS(=O)(=O)c1ccc(-c2ccsc2)c(NC(=O)Nc2cccc(C(F)(F)F)c2)c1 [Compound 121, N-(2-methoxyethyl)-4-(thiophen-3-yl)-3-(3-(3-(trifluoromethyl)phenyl)ureido)benzenesulfonamide] | 0.1 to 1 |
| COCCCNS(=O)(=O)c1ccc(-c2ccsc2)c(NC(=O)Nc2cccc(C(F)(F)F)c2)c1 [Compound 122, N-(3-methoxypropyl)-4-(thiophen-3-yl)-3-(3-(3-(trifluoromethyl)phenyl)ureido)benzenesulfonamide] | 0.1 to 1 |
| CC(C)C(CO)NS(=O)(=O)c1ccc(-c2ccsc2)c(NC(=O)Nc2cccc(C(F)(F)F)c2)c1 (stereo not drawn) [Compound 123, N-(1-hydroxy-3-methylbutan-2-yl)-4-(thiophen-3-yl)-3-(3-(3-(trifluoromethyl)phenyl)ureido)benzene sulfonamide] | 0.1 to 1 |
| O=C(Nc1cccc(C(F)(F)F)c1)Nc1cc(S(=O)(=O)NC2CCC2)ccc1-c1ccsc1 [Compound 125, N-cyclobutyl-4-(thiophen-3-yl)-3-(3-(3-(trifluoromethyl)phenyl)ureido)benzenesulfonamide] | 0.1 to 1 |

The remaining lines, values ahead:

| IC50 [µM] | SMILES |
| --- | --- |
| 0.1 to 1 | O=C(Nc1cc(F)cc(F)c1)Nc1cc(S(=O)(=O)NCC(F)(F)F)ccc1-c1ccccc1 [Compound 89, 2-(3-(3,5-difluorophenyl)ureido)-N-(2,2,2-trifluoroethyl)-[1,1′-biphenyl]-4-sulfonamide] |
| 0.1 to 1 | O=C(Nc1cc(F)ccc1Cl)Nc1cc(S(=O)(=O)NCC(F)(F)F)ccc1-c1ccccc1 [Compound 90, 2-(3-(2-chloro-5-fluorophenyl)ureido)-N-(2,2,2-trifluoroethyl)-[1,1′-biphenyl]-4-sulfonamide] |
| 0.1 to 1 | Cc1cc(NC(=O)Nc2cc(S(=O)(=O)NCC(F)(F)F)ccc2-c2ccccc2)nn1C [Compound 91, 2-(3-(1,5-dimethyl-1H-pyrazol-3-yl)ureido)-N-(2,2,2-trifluoroethyl)-[1,1′-biphenyl]-4-sulfonamide] |
| 0.1 to 1 | O=C(Nc1cncc(C(F)(F)F)c1)Nc1cc(S(=O)(=O)NCC(F)(F)F)ccc1-c1ccccc1 [Compound 94, N-(2,2,2-trifluoroethyl)-2-(3-(5-(trifluoromethyl)pyridin-3-yl)ureido)-[1,1′-biphenyl]-4-sulfonamide] |
| 1 to 10 | O=C(Nc1cc(S(=O)(=O)NCC(F)(F)F)ccc1-c1ccccc1)Nc1ncccc1Cl [Compound 95] |
| 1 to 10 | Cc1cc(NC(=O)Nc2cc(S(=O)(=O)NCC(F)(F)F)ccc2-c2ccccc2)n(C)n1 [Compound 96] |
| 0.1 to 1 | O=C(Nc1cc(S(=O)(=O)NCC(F)(F)F)ccc1-c1ccccc1)Nc1cccnc1F [Compound 97, 2-(3-(2-fluoropyridin-3-yl)ureido)-N-(2,2,2-trifluoroethyl)-[1,1′-biphenyl]-4-sulfonamide] |
| 0.1 to 1 | O=C(Nc1cncc(F)c1)Nc1cc(S(=O)(=O)NCC(F)(F)F)ccc1-c1ccccc1 [Compound 98, 2-(3-(5-fluoropyridin-3-yl)ureido)-N-(2,2,2-trifluoroethyl)-[1,1′-biphenyl]-4-sulfonamide] |
| 1 to 10 | O=C(Nc1cc(S(=O)(=O)NCC(F)(F)F)ccc1-c1ccccc1)Nc1ncccc1F [Compound 99, 2-(3-(3-fluoropyridin-2-yl)ureido)-N-(2,2,2-trifluoroethyl)-[1,1′-biphenyl]-4-sulfonamide] |
| 0.1 to 1 | O=C(Nc1ncc(Cl)s1)Nc1cc(S(=O)(=O)NCC(F)(F)F)ccc1-c1ccccc1 [Compound 100, 2-(3-(5-chlorothiazol-2-yl)ureido)-N-(2,2,2-trifluoroethyl)-[1,1′-biphenyl]-4-sulfonamide] |
| 0.1 to 1 | Cc1nc(NC(=O)Nc2cc(S(=O)(=O)NCC(F)(F)F)ccc2-c2ccccc2)sc1Cl [Compound 101, 2-(3-(5-chloro-4-methylthiazol-2-yl)ureido)-N-(2,2,2-trifluoroethyl)-[1,1′-biphenyl]-4-sulfonamide] |
| 0.1 to 1 | Cc1coc(NC(=O)Nc2cc(S(=O)(=O)NCC(F)(F)F)ccc2-c2ccccc2)n1 [Compound 102, 2-(3-(4-methyloxazol-2-yl)ureido)-N-(2,2,2-trifluoroethyl)-[1,1′-biphenyl]-4-sulfonamide] |
| 1 to 10 | O=C(Nc1cc(S(=O)(=O)NCC(F)(F)F)ccc1-c1ccccc1)Nc1ncccc1C(F)(F)F [Compound 104, N-(2,2,2-trifluoroethyl)-2-(3-(3-(trifluoromethyl)pyridin-2-yl)ureido)-[1,1′-biphenyl]-4-sulfonamide] |
| 0.1 to 1 | O=C(Nc1nccc(Cl)n1)Nc1cc(S(=O)(=O)NCC(F)(F)F)ccc1-c1ccccc1 [Compound 105, 2-(3-(4-chloropyrimidin-2-yl)ureido)-N-(2,2,2-trifluoroethyl)-[1,1′-biphenyl]-4-sulfonamide] |
| 1 to 10 | Cc1ccnc(NC(=O)Nc2cc(S(=O)(=O)NCC(F)(F)F)ccc2-c2ccccc2)n1 [Compound 107, 2-(3-(4-methylpyrimidin-2-yl)ureido)-N-(2,2,2-trifluoroethyl)-[1,1′-biphenyl]-4-sulfonamide] |
